Reference: patent US9120762B2, “Salts of bicyclo-substituted pyrazolon azo derivatives, preparation method and use thereof” (Jiangsu Hengrui Medicine Co., Ltd., priority 2009, dated 2015)
Where two headings read alike, the source gives them in different places.

What was measured:
human TPOR = biological target: T1, human TPOR (Homo sapiens, UniProt P40238); test: Proliferation effect on BAF3-TPOR cell (CCK-8); format: cell-based; details: rate relative to rhTPO positive control
T1 construct: host or cells: BaF3 (murine pro-B cells), stably transfected, G418-selected
T1 sequence (P40238 26-635): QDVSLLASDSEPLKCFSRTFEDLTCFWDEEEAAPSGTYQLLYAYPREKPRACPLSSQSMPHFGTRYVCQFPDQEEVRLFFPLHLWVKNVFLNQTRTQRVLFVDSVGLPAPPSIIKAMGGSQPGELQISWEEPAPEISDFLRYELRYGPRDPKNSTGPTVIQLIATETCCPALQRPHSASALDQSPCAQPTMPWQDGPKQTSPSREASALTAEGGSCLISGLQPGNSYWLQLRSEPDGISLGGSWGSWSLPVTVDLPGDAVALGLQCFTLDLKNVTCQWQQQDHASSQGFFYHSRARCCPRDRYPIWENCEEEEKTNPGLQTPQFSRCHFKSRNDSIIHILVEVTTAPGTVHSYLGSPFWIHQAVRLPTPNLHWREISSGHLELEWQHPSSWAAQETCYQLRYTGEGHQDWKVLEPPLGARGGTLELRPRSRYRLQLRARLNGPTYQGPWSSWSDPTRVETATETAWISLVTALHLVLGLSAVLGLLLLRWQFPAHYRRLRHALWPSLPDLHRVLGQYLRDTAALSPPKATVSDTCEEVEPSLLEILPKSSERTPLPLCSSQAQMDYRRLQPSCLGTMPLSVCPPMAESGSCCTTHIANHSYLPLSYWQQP
Protocol: (1) Plasmid constructs: based on the TPO receptor (TPOR) sequence information from Entrez (Gene ID: 4325, Refseq: NM_005373), dual-site mutation was performed on EX-B0010-M02 plasmid by using QuikChange® Multi Site Directed Mutagenesis Kit (Stratagene). The sequence of primers containing multi-sites mutation was designed as follows: […]
The E. coli DH5α competent cells were transformed with mutated plasmid, and positive colonies were picked up through ampicillin selection. The mutation result was confirmed by sequence analysis.
(2) BAF3-TPOR stable transfected cell line: the following method was used to construct the BaF3 cell which stably over-expressed functional human TPOR. The successfully mutated EX-B0010-M02 plasmid ([…]) which expressed human TPOR and screening gene neomycin was transfected into wild-type BaF3 cells (1×10^7) by electroporation at 250V for 18 ms using an electric pulse generator (Electro Square Porator ECM830, BTX Division of Genetronic, Inc. US). The stable transfected cells BAF3-TPOR were selected with G418 (Gibco, US), then incubated in RPMI1640 medium plus 10% FBS (Gibco, US), […] G418, 5 ng/mL, rmIL-3 (Chemicon, US).
(1) Washing cells by centrifugation: a suitable amount of cell suspension was centrifuged at 1000 rpm for 5 minutes, and the supernatant was discarded. 10 mL of cell culture media without IL-3 was added. Then the resulting cell suspension was centrifuged at 1000 rpm for 5 minutes, and the supernatant was discarded.
(2) 1 mL of cell culture media without IL-3 was added to beat upon them to equality, and the number of a suitable amount of cell suspension was counted after dilution.
(3) According to the result of the cell counting, a cell suspension in a concentration of 100,000 cell/mL was prepared.
(4) 100 μL of cell suspension was transferred to each well of 96-well culture plate, and there were 3 parallel wells, that is, there were a blank control group (B), a negative control group (N), a positive control group of TPO (P) and a test compound group (S).
(5) The test compound was dissolved in DMSO to prepare a 10 mM stock solution, and then the solution was diluted with RPMI 1640 medium into a series of test samples at different concentration: 30 μM, 10 μM, 3 μM, 1 μM, 0.3 μM, 0.1 μM, 0.03 μM, 0.01 μM, 0.003 μM, 0.001 μM.
(6) 10 μL of test compound solution was transferred to each well respectively; 1 μL of rhTPO (10 ng/mL) was added to positive control well.
(7) The plates were incubated in an incubator at 5% CO2 and 37° C. for 24 hours.
(8) After incubation, 10 μL of CCK-8 solution was added to each well and the plates were incubated in the incubator for another 24 hours.
(9) OD value was detected at 450 nm by VICTORS (Perkin Elmer 1420-120) plate reader.
(1) The proliferation rate was calculated as follows: Rate=[(S−B)/(P−B)]*100%
S: OD value of wells which contain test compound.
B: OD value of blank control wells
P: OD value of positive control wells
(2) The EC50 value was calculated by Origin 7.0 software.

[1] = Solubility assay in water, 0.1% hydrochloric acid and methanol; format: physicochemical; details: read-out: solubility
Protocol: The solubility was characterized by:
The term “very soluble” refers to that 1 g (mL) of solute can be dissolved in less than 1 mL of solvent;
The term “freely soluble” refers to that 1 g (mL) of solute can be dissolved in from 1 mL to 10 mL, not including 10 mL of solvent;
The term “soluble” refers to that 1 g (mL) of solute can be dissolved in from 10 mL to 30 mL, not including 30 mL of solvent;
The term “sparingly soluble” refers to that 1g (mL) of solute can be dissolved in from 30 mL to 100 mL, not including 100 mL of solvent;
The term “slightly soluble” refers to that 1g (mL) of solute can be dissolved in from 100 mL to 1000 mL, not including 1000 mL of solvent;
The term “very slightly soluble” refers to that 1g (mL) of solute can be dissolved in from 1000 mL to 10000 mL, not including 10000 mL of solvent;
The term “practically insoluble or insoluble” refers to that 1g (mL) of solute cannot be dissolved completely in 10000 mL of solvent.

[2] = Pharmacokinetics assay in rats; format: in vivo, SD rats; details: 50 mg/kg, SD rats, intragastric, 50 mg/Kg (as free acid); for Vd/F / AUC / CL/F / half-life / MRT / Cmax / Tmax: both sexes, SD, rat, plasma, po; for Vd/F: read-out: Apparent Distribution Volume Vz/F; for AUC: read-out: Area Under Curve AUC; for CL/F: read-out: Clearance CL/F (converted); for half-life: read-out: Half-Life t½ (converted); for MRT: read-out: Mean Residence Time MRT; for Cmax: read-out: Plasma Conc. Cmax; for Tmax: read-out: Time to peak Tmax
Protocol: The compounds of the present disclosure were administrated intragastrically to rats to determine the drug concentration in plasma at different time points by HPLC-UV. The pharmacokinetic behavior of the compounds of the present disclosure was studied and evaluated in rats. […] Healthy adult SD rats, male and female in half, were purchased from SINO-BRITSH SIPPR/BK LAB.ANIMAL LTD., Colo., License number: SCXK (Shanghai) 2003-0002 The test compound was diluted with 1% sodium carboxymethyl cellulose to 5 mg/mL (calculated as the free acid form) of suspension before use. Healthy adult SD rats, male and female in half, were divided into 23 groups. […] The plasma samples were stored at −20° C. until analysis. The rats were fed 2 hours after administration. […] Then the mixture was mixed for 3 minute using a vortexer and centrifuged for 10 minutes at 13,500 rpm. 40 μL of the supernatant was analyzed by HPLC-UV. The compartmental model of pharmacokinetics was fitted for the test compounds and the major pharmacokinetic parameters were calculated in which Cmax and tmax were the actually measured values.

Vd/F [2] | AUC [2] | CL/F [2] | half-life [2] | MRT [2] | Cmax [2] | Tmax [2] | Mean Residence Time MRT [2] | Compound | EC50 (human TPOR) | solubility ([1]; 0.1% hydrochloric acid, simulated gastric fluid, 0.1% hydrochloric acid) | solubility ([1]; methanol, organic solvent or mixture, methanol) | solubility ([1]; water) | Area Under Curve AUC [2] | Clearance CL/F [2] | Half-Life t½ [2] | Plasma Conc. Cmax [2] | Time to peak Tmax [2]
– | – | – | – | – | – | – | 20.8 ± 9.1 h | CC1=NN(c2ccc3c(c2)C(C)(C)CC3)C(=O)/C1=N\Nc1cccc(-c2ccc(C(=O)O)o2)c1O [Example 5, (Z)-5-(3-{N′-[1-(3,3-dimethyl-indan-5-yl)-3-methyl-5-oxo-1,5-dihydro-pyrazol-4-ylidene]-hydrazino}-2-hydroxy-phenyl)-furan-2-carboxylic acid bis-(diethylamine)] | 19 nM | – | – | – | 255 ± 95 µg·h/mL | 0.22 ± 0.07 L/h/kg | 15.0 ± 6.2 h | 19.8 ± 3.8 µg/mL | 3.25 ± 1.5 h
– | – | – | – | – | – | – | – | CC1=NN(c2ccc3c(c2)CCCC3)C(=O)/C1=N\Nc1cccc(-c2ccc(C(=O)O)o2)c1O [Example 9, (Z)-5-(2-hydroxy-3-{N′-[3-methyl-5-oxo-1-(5,6,7,8-tetrahydro-naphthalen-2-yl)-1,5-dihydro-pyrazol-4-ylidene]-hydrazino}-phenyl)-furan-2-carboxylic acid bis-(diethylamine)] | 14 nM | – | – | – | 146 ± 69.7 µg·h/mL | 0.391 ± 0.145 L/h/kg | 9.65 ± 2.48 h | 21.2 ± 10.4 µg/mL | 2.88 ± 2.59 h
– | – | – | – | – | – | – | – | CC1=NN(c2ccc3c(c2)CCCC3)C(=O)/C1=N\Nc1cccc(-c2ccc(C(=O)O)o2)c1O [Example 13, (Z)-5-(2-hydroxy-3-{N′-[3-methyl-5-oxo-1-(5,6,7,8-tetrahydro-naphthalen-2-yl)-1,5-dihydro-pyrazol-4-ylidene]-hydrazino}-phenyl)-furan-2-carboxylic acid bis-(dibenzylethylenediamine)] | 20 nM | – | – | – | 42.8 ± 33.2 µg·h/mL | 1.63 ± 0.83 L/h/kg | 5.70 ± 2.50 h | 8.10 ± 3.35 µg/mL | 1.38 ± 1.11 h
– | – | – | – | – | – | – | – | CC1=NN(c2ccc3c(c2)CCCC3)C(=O)/C1=N\Nc1cccc(-c2ccc(C(=O)O)o2)c1O [Example 15, (Z)-5-(2-hydroxy-3-{N′-[3-methyl-5-oxo-1-(5,6,7,8-tetrahydro-naphthalen-2-yl)-1,5-dihydro-pyrazol-4-ylidene]-hydrazino}-phenyl)-furan-2-carboxylic acid bis-(L-arginine)] | 16 nM | – | – | – | 168 ± 118 µg·h/mL | 0.758 ± 0.995 L/h/kg | 6.56 ± 3.80 h | 23.3 ± 13.6 µg/mL | 2.0 ± 1.16 h
3.41 ± 1.75 L/kg | 603 ± 240 µg·h/mL | 4 mL/min/kg | 597 ± 36 min | 14.8 ± 1 h | 39800 ± 18200 ng/mL | 5 ± 2 h | – | CC1=NN(c2ccc3c(c2)CCCC3)C(=O)/C1=N\Nc1cccc(-c2coc(C(=O)O)c2)c1O.NCCO.NCCO [Example 22, (Z)-4-(2-Hydroxy-3-{N′-[3-methyl-5-oxo-1-(5,6,7,8-tetrahydro-naphthal-2-yl)-1,5-dihydro-pyrazol-4-ylidene]-hydrazino}-phenyl)-furan-2-carboxylic acid bis-(ethanolamine)] | 39 nM | – | – | – | – | – | – | – | –
8.49 ± 2.16 L/kg | 151 ± 97 µg·h/mL | 11.5 mL/min/kg | 553 ± 94.2 min | 11.8 ± 4.5 h | 8730 ± 2580 ng/mL | 4.25 ± 1.26 h | – | CC1=NN(c2ccc3c(c2)CCCC3)C(=O)/C1=N\Nc1cccc(-c2coc(C(=O)O)c2)c1O [Example 22f, (Z)-4-(2-hydroxy-3-{N′-[3-methyl-5-oxo-1-(5,6,7,8-tetrahydro-naphthal-2-yl)-1,5-dihydro-pyrazol-4-ylidene]-hydrazino}-phenyl)-furan-2-carboxylic acid] | 42 nM | – | – | – | – | – | – | – | –

Compound | Vd/F [2] | AUC [2] | CL/F [2] | half-life [2] | MRT [2] | Cmax [2] | Tmax [2] | Mean Residence Time MRT [2] | EC50 (human TPOR) | solubility ([1]; 0.1% hydrochloric acid, simulated gastric fluid, 0.1% hydrochloric acid) | solubility ([1]; methanol, organic solvent or mixture, methanol) | solubility ([1]; water) | Area Under Curve AUC [2] | Clearance CL/F [2] | Half-Life t½ [2] | Plasma Conc. Cmax [2] | Time to peak Tmax [2]
CC1=NN(c2ccc3c(c2)CCC3)C(=O)/C1=N\Nc1cccc(-c2cccc(C(=O)O)c2)c1O.NCCO.NCCO [Example 1, (Z)-2′-hydroxy-3′-[N′-(1-indan-5-yl-3-methyl-5-oxo-1,5-dihydro-pyrazol-4-ylidene)-hydrazino]-biphenyl-3-carboxylic acid bis-(ethanolamine)] | 0.45 ± 0.32 L/kg | 501 ± 178 µg·h/mL | 1.63 mL/min/kg | 323 ± 56.4 min | 4.96 ± 1.16 h | 90100 ± 35300 ng/mL | 3.25 ± 1.5 h | – | 150 nM | < 1 µg/mL | 1470 µg/mL | 3 µg/mL | – | – | – | – | –
